The subject of assay [1] is pAKT in MCF7 (measure of mTORC2 activity). The assay is described as follows: AlphaLISA Ultra pAKT assay. The settings on record: Homo sapiens, MCF7, 2 h, MCF-7 cells, 2 hours compound incubation. The format is cell-based. The protocol:
(§1) Assay Protocol: • 1. […] 16,000˜20,000 cells will be seeded in 36 μL medium per well. • 2. Change the culture medium with fresh medium and incubate for another 2 hours. • 3. Add 12 μL (4×) compounds into the cell plate by HAMILTON. Final DMSO concentration is 0.5%. Incubate for 2 hours. • 4. Aspirate 38 μL by HAMILTON, 10 μL rest per well. • 5. Add 10 μL 2× lysis buffer using HAMILTON; total volume in wells is 20 μL. Allow cells to shake for 30 min. Cover plate by plastic foil and store plate at −80° C. up to analysis. • 6. […] Add 5 ul acceptor beads into assay plate and incubation for 2 hours • 8. Add 5 ul donor beads and incubation for 2 hours • 9. Count the plate by EnSpire Multimode Plate Reader
In general terms: Bead proximity is the source of the signal in Alpha formats.

Assay [2] concerns pS6K1 in MCF7 (measure of mTORC1 activity). The experiment in a line: AlphaLISA Ultra pS6K1 assay. The format is cell-based. The following applies: Homo sapiens, MCF7, 2 h, MCF-7 cells, 2 hours compound incubation. The protocol: as §1, with “12,000˜16,000” for “16,000˜20,000”, “(4λ)” for “(4×)”

Broadly, the IC50 is the concentration needed to halve the response being measured. Read a low IC50 as higher potency.

Take `Cc1c(CN2CCN(c3ccccc3C#N)CC2)cc(C(=O)N2CCN(c3ccc4ncn(C)c4c3)CC2)n1C` [Example I-48]: the IC50 in assay [1] was above 10000 nM; in assay [2] it was 3000 to 10000 nM.
With `Cc1c(CN2CCN(c3ccccc3Cl)CC2)cc(C(=O)N2CCCN(c3ccc(F)cc3)CC2)n1C` [Example I-49, (4-((4-(2-Chlorophenyl)piperazin-1-yl)methyl)-1,5-dimethyl-1H-pyrrol-2-yl)(4-(4-fluorophenyl)-1,4-diazepan-1-yl)methanone], the IC50 in assay [1] was above 10000 nM; in assay [2], 1000 to 3000 nM.
For the compound `Cc1c(CN2CCN(c3ccccc3C#N)CC2)cc(C(=O)N2CCCN(c3ccc(F)cc3)CC2)n1C` [Example I-50, 2-(4-((5-(4-(4-Fluorophenyl)-1,4-diazepane-1-carbonyl)-1,2-dimethyl-1H-pyrrol-3-yl)methyl)piperazin-1-yl)benzonitrile], the IC50 in assay [1] was above 10000 nM; in assay [2] it was 1000 to 3000 nM.
For `Cc1c(CN2CCN(c3ccccc3Cl)CC2)cc(C(=O)N2CCN(c3cnccn3)C[C@@H]2C)n1C` [Example I-51, (S)-(4-((4-(2-chlorophenyl)piperazin-1-yl)methyl)-1,5-dimethyl-1H-pyrrol-2-yl)(2-methyl-4-(pyrazin-2-yl)piperazin-1-yl)methanone] the same measures were above 10000 nM and 10 to 1000 nM.
With `Cc1c(CN2C3CCC2CN(c2ccccc2C#N)C3)cc(C(=O)N2CCN(c3ccccn3)CC2)n1C` [Example I-52, 2-(8-((1,2-dimethyl-5-(4-(pyridin-2-yl)piperazine-1-carbonyl)-1H-pyrrol-3-yl)methyl)-3,8-diazabicyclo[3.2.1]octan-3-yl)benzonitrile], the figures for the IC50 in assay [1] and in assay [2] were above 10000 nM and 10 to 1000 nM, respectively.
The like results for `Cc1c(CN2CCN(c3ccccc3C#N)CC2)cc(C(=O)N2CCN(c3ccc(C#N)cc3)CC2)n1C` [Example I-53] were, in that order, above 10000 nM and 1000 to 3000 nM.
The like results for `Cc1c(CN2CCN(c3ccccc3C#N)CC2)cc(C(=O)N2CCN(c3ccccc3)CC2)n1C` [Example I-54] were, in that order, above 1000 nM and 10 to 1000 nM.
The like results for `Cc1c(CN2CCN(c3ccccc3C#N)CC2)cc(C(=O)N2CCN(c3ccc(F)cc3)CC2)n1C` [Example I-55] were, in that order, above 1000 nM and 10 to 1000 nM.
As to `Cc1c(CN2CCN(c3ccccc3C#N)CC2)cc(C(=O)N2CCN(c3ncccc3C#N)CC2)n1C` [Example I-56], the values for the IC50 in assay [1] and in assay [2] were above 3000 nM and 10 to 1000 nM, respectively.
The like results for `C[C@H]1CN(c2cccc(C#N)c2)CCN1C(=O)c1cc(CN2CCN(c3ccccc3C#N)CC2)cn1C` [Example I-57] were, in that order, above 3000 nM and 10 to 1000 nM.
Regarding `C[C@H]1CN(c2ccccc2C#N)CCN1C(=O)c1cc(CN2CCN(c3ccccc3C#N)CC2)cn1C` [Example I-58], the IC50 in assay [1] was above 10000 nM; in assay [2], 10 to 1000 nM.
`Cc1c(CN2CCN(c3ccccc3Cl)CC2)cc(C(=O)N2CCN(c3cc(C#N)ccn3)CC2)n1C` [Example I-59]: the IC50 in assay [1] was above 3000 nM; in assay [2], 1000 to 3000 nM.
For `Cc1c(CN2CCN(c3ccccc3C#N)CC2)cc(C(=O)N2CCN(c3ccccn3)CC2)n1C` [Example I-60] the same measures were above 3000 nM and 10 to 1000 nM.
The like results for `COc1ccnc(N2CCN(C(=O)c3cc(CN4CCN(c5ccccc5C#N)CC4)c(C)n3C)CC2)c1` [Example I-61] were, in that order, above 3000 nM and 10 to 1000 nM.
In the case of `Cc1ccnc(N2CCN(C(=O)c3cc(CN4CCN(c5ccccc5C#N)CC4)c(C)n3C)CC2)c1` [Example I-62], the IC50 in assay [1] is above 3000 nM; in assay [2], 10 to 1000 nM.
The like results for `Cc1cccc(N2CCN(C(=O)c3cc(CN4CCN(c5ccccc5C#N)CC4)c(C)n3C)CC2)n1` [Example I-64] were, in that order, above 3000 nM and 10 to 1000 nM.
Take `Cc1c(CN2CCN(c3ccccc3C#N)CC2)cc(C(=O)N2CCN(c3cc(C#N)ccn3)CC2)n1C` [Example I-65]: the IC50 in assay [1] was above 3000 nM; in assay [2], 10 to 1000 nM.
Turning to `Cc1c(CN2CCN(c3ccccc3C#N)CC2)cc(C(=O)N2CCN(c3cccc(C#N)c3)C[C@@H]2C)n1C` [Example I-66], the IC50 in assay [1] is above 3000 nM; in assay [2], 10 to 1000 nM.
For `Cc1c(CN2CCN(c3ccccc3C#N)CC2)cc(C(=O)N2CCN(c3ccccc3C#N)C[C@@H]2C)n1C` [Example I-67] the same measures were above 10000 nM and 10 to 1000 nM.
For `Cc1c(CN2CCN(c3ccccc3C#N)CC2)cc(C(=O)N2CCN(c3cc(Cl)ccn3)CC2)n1C` [Example I-68] the same measures were above 1000 nM and 10 to 1000 nM.
The like results for `COc1cccc(N2CCN(C(=O)c3cc(CN4CCN(c5ccccc5C#N)CC4)c(C)n3C)CC2)n1` [Example I-69] were, in that order, above 3000 nM and 10 to 1000 nM.
On to `Cc1ccnc(N2CCN(C(=O)c3cc(CN4CCN(c5ccccc5Cl)CC4)c(C)n3C)CC2)c1` [Example I-70], for which the values for the IC50 in assay [1] and in assay [2] were above 3000 nM and 10 to 1000 nM, respectively.
The like results for `Cc1c(CN2CCN(c3ccccc3Cl)CC2)cc(C(=O)N2CCN(c3cc(Cl)ccn3)CC2)n1C` [Example I-71] were, in that order, above 3000 nM and 10 to 1000 nM.
For `Cn1cc(CN2CCN(c3ccccc3C#N)CC2)cc1C(=O)N1CCN(c2ccc(F)cc2)CC1` [Example I-73] the same measures were above 10000 nM and 3000 to 10000 nM.
In the case of `Cc1c(CN2CCN(c3ccccc3Cl)CC2)cc(C(=O)N2CCN(c3ncccn3)C[C@@H]2C)n1C` [Example I-74, (S)-(4-((4-(2-chlorophenyl)piperazin-1-yl)methyl)-1,5-dimethyl-1H-pyrrol-2-yl)(2-methyl-4-(pyrimidin-2-yl)piperazin-1-yl)methanone], the IC50 was above 10000 nM in assay [1] and 1000 to 3000 nM in assay [2].
For the compound `Cc1c(CN2CCN(c3ccccc3Cl)CC2)cc(C(=O)N2CCN(c3cccc(F)c3)C[C@@H]2C)n1C` [Example I-75, (S)-(4-((4-(2-chlorophenyl)piperazin-1-yl)methyl)-1,5-dimethyl-1H-pyrrol-2-yl)(4-(3-fluorophenyl)-2-methylpiperazin-1-yl)methanone 2,2,2-trifluoroacetate], the figures for the IC50 in assay [1] and in assay [2] were above 5000 nM and 1000 to 3000 nM, respectively.
As to `Cc1c(CN2CCN(c3ccccc3Cl)CC2)cc(C(=O)N2CCN(c3ncc(F)cn3)C[C@@H]2C)n1C` [Example I-77, (S)-(4-((4-(2-chlorophenyl)piperazin-1-yl)methyl)-1,5-dimethyl-1H-pyrrol-2-yl)(4-(5-fluoropyrimidin-2-yl)-2-methylpiperazin-1-yl)methanone], the IC50 in assay [1] was above 5000 nM; in assay [2], 1000 to 3000 nM.
The like results for `Cc1c(CN2CCN(c3ncccc3Cl)CC2)cc(C(=O)N2CCN(c3ccc(F)c(F)c3)C[C@@H]2C)n1C` [Example I-78, (S)-(4-((4-(3-chloropyridin-2-yl)piperazin-1-yl)methyl)-1,5-dimethyl-1H-pyrrol-2-yl)(4-(3,4-difluorophenyl)-2-methylpiperazin-1-yl)methanone] were, in that order, above 3000 nM and 10 to 1000 nM.
With `Cc1c(CN2CCN(c3ncccc3Cl)CC2)cc(C(=O)N2CCN(c3cccc(C#N)c3)CC2)n1C` [Example I-79, 3-(4-(4-((4-(3-Chloropyridin-2-yl)piperazin-1-yl)methyl)-1,5-dimethyl-1H-pyrrole-2-carbonyl)piperazin-1-yl)benzonitrile], the IC50 is above 3000 nM in assay [1] and 10 to 1000 nM in assay [2].
For `Cc1c(CN2CCN(c3ncccc3Cl)CC2)cc(C(=O)N2CCN(c3ccc(F)cc3)CC2)n1C` [Example I-80, (4-((4-(3-Chloropyridin-2-yl)piperazin-1-yl)methyl)-1,5-dimethyl-1H-pyrrol-2-yl)(4-(4-fluorophenyl)piperazin-1-yl)methanone] the same measures were above 3000 nM and 10 to 1000 nM.
Turning to `Cc1c(CN2CCN(c3ccccc3Cl)CC2)cc(C(=O)N2CCn3nc(-c4ccccc4)cc3C2)n1C` [Example I-81, (4-((4-(2-Chlorophenyl)piperazin-1-yl)methyl)-1,5-dimethyl-1H-pyrrol-2-yl)(2-phenyl-6,7-dihydropyrazolo[1,5-a]pyrazin-5(4H)-yl)methanone 2,2,2-trifluoroacetate], the IC50 in assay [1] was above 10000 nM; in assay [2], 1000 to 3000 nM.
Turning to `Cc1c(CN2CCN(c3ccccc3Cl)CC2)cc(C(=O)N2CCN(c3ccc(F)c(Cl)c3)CC2)n1C` [Example I-82, (4-(3-chloro-4-fluorophenyl)piperazin-1-yl)(4-((4-(2-chlorophenyl)piperazin-1-yl)methyl)-1,5-dimethyl-1H-pyrrol-2-yl)methanone], the figures for the IC50 in assay [1] and in assay [2] were above 10000 nM and 1000 to 3000 nM, respectively.
For `Cc1c(CN2CCN(c3ccccc3N=[N+]=[N-])CC2)cc(C(=O)N2CCN(c3ccccc3)C[C@@H]2C)n1C` [Example I-83, (S)-(4-((4-(2-azidophenyl)piperazin-1-yl)methyl)-1,5-dimethyl-1H-pyrrol-2-yl)(2-methyl-4-phenylpiperazin-1-yl)methanone], the IC50 is above 10000 nM in assay [1] and 1000 to 3000 nM in assay [2].

Values taken from patent US20190389843A1, “PYRROLE mTORC INHIBITORS AND USES THEREOF” (Navitor Pharmaceuticals, Inc., priority 2016, published 2019).
